Experimental findings from patent US20020028836A1, “Potassium channel openers” (priority 2000, published 2002) are described below.

For series [1], the system named is tissue strips obtained from Landrace pig bladders. In words: Functional potassium channel opening activity in isolated bladder strips (field-stimulated twitch). To be noted: for Index: ED50 for P1075 divided by ED50 for the test agonist in a given tissue, averaged; for pEC50: amount of agent necessary to cause 50% of the agent's maximal response, read-out: ED50 (the source's name). An outline of the steps:
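Mucosa-free female Landrace pig bladder strips in Krebs Ringer bicarbonate (pH 7.4, 37° C., 0.004 mM propranolol), 1.0 g preload, field-stimulated at 0.05 Hz, 0.5 ms, 20 V for twitch. Cumulative concentration-response curves; maximal efficacy as % of P1075, ED50 fitted, potency index = P1075 ED50/test ED50 per tissue, averaged.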

In series [2] the test system is primary cultured guinea-pig urinary bladder (GPB) cells. Kind of series: Membrane hyperpolarization (MHP) assay, DiBAC(4)3 / FLIPR. The series is classed as cell-based. To be noted: Cavia porcellus; for pEC50: concentration that elicits 50% of the maximal response for the test sample; for Emax: maximal steady-state hyperpolarization, normalized to response with 10 μM P1075 (100%). An outline of the steps:
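Primary smooth-muscle cells from male guinea-pig bladder, grown to confluence, loaded 30 min at 37° C with 5 μM DiBAC(4)3 in HEPES buffer pH 7.4. Fluorescence drop on FLIPR followed 25 min after compound; steady-state hyperpolarization normalized to 10 μM P1075 (100%), EC50 from four-parameter fit of five concentrations.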

Setting [3] is: Sus scrofa, maximal efficacy relative to P1075, field stimulation 0.05 Hz, 0.5 ms, 20 volts.

pEC50: −log10 of the molar value. Read-outs that look alike come from different tables or passages of the source.

For the compound `COc1ncccc1NC(=NC#N)NC(NC(=O)c1cc(Cl)cc(Cl)c1)C(C)(Cl)Cl` (centres unmarked) [Example 164, 3,5-dichloro-N-[2,2-dichloro-1-({(cyanoimino)[(2-methoxy-3-pyridinyl)amino]methyl}amino)propyl]benzamide], the melting point fell in the range of 149 to 150 °C.
On the same count and under the same terms, under `Cc1ccc(C(=O)N[C@@H](COC(C)(C)C)NC(=S)Nc2cccc([N+](=O)[O-])c2)cc1` [Example 31, N-((1R)-2-(tert-butoxy)-1-{[(3-nitroanilino)carbothioyl]amino}ethyl)-4-methylbenzamide] stands 169 to 171 °C; under `CC(C)(C)C(NC(=O)c1ccc(Cl)cc1)NC(Nc1cccnc1)=C(C#N)C#N` (centres unmarked) [Example 152, 4-chloro-N-(1-{[2,2-dicyano-1-(3-pyridinylamino)vinyl]amino}-2,2-dimethylpropyl)benzamide], 213 to 214 °C; under `COc1ccccc1NC(=NC#N)NC(NC(=O)c1ccc(Cl)cc1)C(C)(Cl)Cl` (centres unmarked) [Example 181, 4-chloro-N-(2,2-dichloro-1-{[(cyanoimino)(2-methoxyanilino)methyl]amino}propyl)benzamide], 185 to 186 °C.
Same read-out and setting: under `Cc1ccc(C(=O)NC(NC(=S)Nc2ccccc2C)C(F)(F)F)cc1` (centres unmarked) [Example 2, 4-methyl-N-{2,2,2-trifluoro-1-[(2-toluidinocarbothioyl)amino]ethyl}benzamide] stands 210 to 211 °C; under `CC(C)(C)C(NC(=O)Nc1ccccc1F)NC(=O)c1ccc(Cl)cc1` (centres unmarked) [Example 147, 4-chloro-N-(1-{[(2-fluoroanilino)carbonyl]amino}-2,2-dimethylpropyl)benzamide], 229 to 230 °C.
For the compound `CCCC(Cl)(Cl)C(NC(=O)c1ccc(Cl)cc1)NC(=N[N+](=O)[O-])Nc1cccnc1` (centres unmarked) [Example 136, 4-chloro-N-(2,2-dichloro-1-{[(nitroimino)(3-pyridinylamino)methyl]amino}pentyl)benzamide], the melting point was in the range of 198 to 200 °C.
Still for that read-out and setting: the result for `CC(C)(C)C(NC(=O)c1ccc(Cl)cc1)NC(=NC#N)Nc1cccc(Cl)c1` (centres unmarked) [Example 75, 4-chloro-N-(1-{[(cyanoimino)(3-chloroanilino)methyl]amino}-2,2-dimethylpropyl)benzamide] reads 158 to 160 °C.
With `C=CC(C)(C)CC(NC(=O)c1ccc(Cl)cc1)NC(=N[N+](=O)[O-])Nc1cccnc1` (centres unmarked) [Example 133, 4-chloro-N-(1-{[(nitroimino)(3-pyridinylamino)methyl]amino}-3,3-dimethyl-4-pentenyl)benzamide], the Index in series [1] stood at 0.039. Moreover, the pEC50 was 5.08 in series [1] (Sus scrofa) and 7.41 in series [2]. Moreover, the values for the Emax in series [1] (setting [3]) and in series [2] were 58% and 106%, respectively.
On the same counts, the results for `Cc1ccc(C(=O)NC(NC(=NC#N)Nc2cccnc2)C(Cl)(Cl)Cl)cc1` (centres unmarked) [Example 44, 4-methyl-N-(2,2,2-trichloro-1-{[(cyanoimino)(3-pyridinylamino)methyl]amino}ethyl)benzamide] are 0.040, 5.70, 7.40, 95% and 103%.
On the same counts, the results for `Cc1ccc(C(=O)NC(NC(=S)Nc2cccnc2)C(F)(F)F)cc1` (centres unmarked) [Example 1, 4-methyl-N-(2,2,2-trifluoro-1-{[(3-pyridinylamino)carbothioyl]amino}ethyl)benzamide] are 0.009, 5.05, 7.15, 100% and 116%.
On the same counts, the results for `Cc1ccccc1C(=O)NC(NC(=NC#N)Nc1cccnc1)C(Cl)(Cl)Cl` (centres unmarked) [Example 50, 2-methyl-N-(2,2,2-trichloro-1-{[(cyanoimino)(3-pyridinylamino)methyl]amino}ethyl)benzamide] are 0.007, 4.77, 7.00, 90% and 92%.
`Cc1ccc(C(=O)NC(NC(=S)Nc2ccccc2)C(F)(F)F)cc1` (centres unmarked) [Example 9, N-{1-[(anilinocarbothioyl)amino]-2,2,2-trifluoroethyl}-4-methylbenzamide] displayed an Index in series [1] of 0.011. The pEC50 in series [1] (Sus scrofa) was 4.77; in series [2] it was 7.10. The values for the Emax in series [1] (setting [3]) and in series [2] were 91% and 104%, respectively.
The compound `CC(C)(C)C(NC(=O)c1ccc(Cl)cc1)NC(=N[N+](=O)[O-])Nc1cccnc1` (centres unmarked) [Example 123, 4-chloro-N-(1-{[(nitroimino)(3-pyridinylamino)methyl]amino}-2,2-dimethylpropyl)benzamide] displayed an Index in series [1] of 0.028. The pEC50 was 5.00 in series [1] (Sus scrofa) and 6.07 in series [2]. Further, the Emax is 63% in series [1] (setting [3]) and 90% in series [2].
As for `CC(C)(C)CC(NC(=O)c1ccc(Cl)cc1)NC(=N[N+](=O)[O-])Nc1cccnc1` (centres unmarked) [Example 124, 4-chloro-N-(1-{[(nitroimino)(3-pyridinylamino)methyl]amino}-3,3-dimethylbutyl)benzamide], in series [1], the Index came out at 0.012 and the pEC50 was 5.03. Also, the “Efficacy (% P1075)” value in series [1] (maximal efficacy relative to P1075, field stimulation 0.05 Hz, 0.5 ms, 20 volts) is 47 % P1075. In series [2], this compound showed a pEC50 of 6.96 and an Emax of 98%.
On to `CC(C)(C)C(NC(=O)c1ccc(I)cc1)NC(=NC#N)Nc1cccnc1` (centres unmarked) [Example 103, N-(1-{[(cyanoimino)(3-pyridinylamino)methyl]amino}-2,2-dimethylpropyl)-4-iodobenzamide], for which, in series [1], the Index is listed as 0.450. In addition, the pEC50 was 5.62 in series [1] (Sus scrofa) and 7.30 in series [2]. For the same compound, the Emax in series [1] (setting [3]) came to 83%; in series [2], 103%.
Compound `CC(C)(C)C(NC(=O)c1ccc(Cl)cc1F)NC(=NC#N)Nc1cccnc1` (centres unmarked) [Example 106, 4-chloro-N-(1-{[(cyanoimino)(3-pyridinylamino)methyl]amino}-2,2-dimethylpropyl)-2-fluorobenzamide] displayed an Index in series [1] of 0.010. In addition, the pEC50 in series [1] (Sus scrofa) is 4.92; in series [2] it was 6.20. Further, the Emax in series [1] (setting [3]) came out at 69%; in series [2], 85%.
On the same counts, the results for `Cc1ccc(C(=O)NC(NC(=S)Nc2cccnc2)c2ccccc2)cc1` (centres unmarked) [Example 34, 4-methyl-N-(phenyl{[(3-pyridinylamino)carbothioyl]amino}methyl)benzamide] are 0.003, 4.64, 6.30, 99% and 80%.
On the same counts, the results for `O=C(CCc1ccccc1)NC(NC(=S)Nc1cccc([N+](=O)[O-])c1)C(Cl)(Cl)Cl` (centres unmarked) [Example 149, 3-phenyl-N-(2,2,2-trichloro-1-{[(3-nitroanilino)carbothioyl]amino}ethyl)propanamide] are 0.076, 5.62, 7.08, 95% and 129%.
On the same counts, the results for `O=C(NC(NC(=S)Nc1ccccc1F)C(F)(F)F)c1ccc(Cl)cc1` (centres unmarked) [Example 21, 4-chloro-N-(2,2,2-trifluoro-1-{[(2-fluoroanilino)carbothioyl]amino}ethyl)benzamide] are 0.014, 4.68, 7.05, 86% and 96%.

What is called melting point is the temperature of the solid-liquid transition. One may read the Emax as the greatest response seen or fitted, relative to the assay's reference.
